Assay results taken from US8691584B2, “Sperm processing methods” (priority 2003, dated 2014).

System: Spermatozoa
Test: Post-thaw sperm motility under phase contrast microscope (Cryopreservation Example I)
Format: cell-based, Bovine
Details: Hoechst 33342 added to aliquots in TCA buffer, 20 min at 35° C. or 41° C., cryopreserved, thawed 37° C. 50 seconds; analysis of variance
Method: Bovine semen was collected, transported, and evaluated as described above. Two test tubes containing 5 ml each of TCA buffer (pH 7.3) were placed in one of two water baths for at least five minutes. One water bath was at a temperature of 35° C. and the other water bath was at 41° C. Spermatozoa at 24° C. were added to each tube so that the final concentration in each tube was 150×10^6 sperm/ml. The two tubes were each divided into two aliquots which were kept in respective water baths. After the sperm had equilibrated with the TCA buffer for five minutes, […] was added to one of 35° C. aliquots and one of the 41° C. aliquots. After addition of the Hoechst 33342, all four aliquots were incubated for 20 minutes in their respective water bath. After incubation, the test tubes were removed from the water baths and left at room temperature (about 25° C.) for five minutes. Then the contents of each test tube were diluted with a TCA extender containing 20% egg yolk and 6% glycerol (v/v) (pH 7.0) to a final concentration of 20×10^6 sperm/ml. The contents of each test tube were then used to fill a 0.5 ml artificial insemination straw. Each of the four straws was placed in a programmable freezer (an IceCube 1810CD freezer from Minitube of America, Wis.). […]

CCOc1ccc(-c2nc3ccc(-c4nc5ccc(N6CCN(C)CC6)cc5[nH]4)cc3[nH]2)cc1 [Hoechst 33342]
effect on post-thaw sperm motility: no significant effect
